Experimental data as given in patent US6448006B1, “Methods and compositions for reducing bacterial tolerance to antibacterials disinfectants and organic solvents” (priority 1997, dated 2002).
≈ marks a conversion by molar mass, not a printed value. Where two headings read alike, the source gives them in different places.

Tests used:
[1] = test system: E. coli strains (AG100, Pine-Sol/pine oil mutants, Mar mutants); experiment: Susceptibility by gradient plates (MIC); type: cell-based; settings: Escherichia coli
Protocol: (§1) Mutants resistant to Pine-Sol/pine oil were obtained from stationary phase LB broth cultures of E. coli strain “WEC” (wild type strain 15-5068 from Carolina Biological Supply Co., Burlington, N.C.) and AG100 (George and Levy, J. Bacteriol. 155:531-540, 1983), at 30° C. on nutrient agar (NP 3.5GP) or LB agar with 2-3 days incubation in a variety of ways: using a 6 mm disc method; plating cells on plates or gradient plates (Curiale and Levy, J. Bacteriol. 151:209-215, 1982), containing PINE-SOL™ (product of Clorox Co., Oakland, Calif.) or pine oil itself.
(§2) Antibiotic susceptibility was measured at 30° C. using antibiotic susceptibility discs (Carolina Biological), gradient plates with the drug in the top agar (Curiale and Levy, 1982) or agar dilution plates (concentration steps of 1.5 fold; inocula of 10^5 cells/5 μl spot). While there was a variability of resistance phenotypes, all Pine-Sol/pine oil-selected mutants were also multidrug resistant (Table 1A, B).

[2] = test system: E. coli strain WEC and its Pine-Sol-selected mutant; experiment: Antibiotic susceptibility by discs (diameter of clearing); type: cell-based
Protocol: as §1, §2

[3] = read-out: Susceptibility by gradient plates (MIC), strain AG102, Mar mutant of AG100, selected on Tc (2 steps)
[4] = read-out: Susceptibility by gradient plates (MIC), strain AP1, mutant of AG100 selected by pine oil on disc
[5] = read-out: Susceptibility by gradient plates (MIC), strain AP5, mutant of AG100 selected as for AP1
[6] = read-out: Susceptibility by gradient plates (MIC), strain APS3, mutant of AG100 selected on Pine-Sol gradient (0-1.5%)
[7] = strain AG100, wildtype, read-out: Susceptibility by gradient plates (MIC)
[8] = strain HH180, deletion of 39 kb including mar locus, host MM294, read-out: Susceptibility by gradient plates (MIC)
[9] = strain HH188, HH180 containing pHHM183 (mar+), read-out: Susceptibility by gradient plates (MIC)
[10] = strain HH191, HH180 containing pHHM191 (marR2), read-out: Susceptibility by gradient plates (MIC)
[11] = strain HH193, HH180 containing pHHM193 (marR5), read-out: Susceptibility by gradient plates (MIC)

## CC1(C)S[C@@H]2[C@H](NC(=O)[C@H](N)c3ccccc3)C(=O)N2[C@H]1C(=O)O [Ap, ampicillin]
[1]; [3]
  MIC: 85 µg/mL (≈ 243 µM)
[1]; [4]
  MIC: 3 µg/mL (≈ 8.59 µM)
[1]; [5]
  MIC: 7.2 µg/mL (≈ 20.6 µM)
[1]; [6]
  MIC: 7.7 µg/mL (≈ 22 µM)
[1]; [7]
  MIC: < 1.2 µg/mL
[1]; [8]
  MIC: < 0.6 µg/mL
[1]; [9]
  MIC: < 1 µg/mL
[1]; [10]
  MIC: 5.4 µg/mL (≈ 15.5 µM)
[1]; [11]
  MIC: 5.9 µg/mL (≈ 16.9 µM)
[2]; strain WEC, wild type, 30° C.
  Susceptibility by discs; diameter of clearing: 22 mm
[2]; {}
  Susceptibility by discs; diameter of clearing: 12 mm

## O=C(N[C@H](CO)[C@H](O)c1ccc([N+](=O)[O-])cc1)C(Cl)Cl [Cm, chloramphenicol]
[1]; [3]
  MIC: > 35 µg/mL
[1]; [4]
  MIC: 7.8 µg/mL (≈ 24.1 µM)
[1]; [5]
  MIC: 21 µg/mL (≈ 65 µM)
[1]; [6]
  MIC: > 35 µg/mL
[1]; [7]
  MIC: 2.6 µg/mL (≈ 8.05 µM)
[2]; strain WEC, wild type, 30° C.
  Susceptibility by discs; diameter of clearing: 27 mm
[2]; {}
  Susceptibility by discs; diameter of clearing: 11 mm

## CCn1cc(C(=O)O)c(=O)c2ccc(C)nc21 [Nal, nalidixic acid]
[1]; [3]
  MIC: 14 µg/mL (≈ 60.3 µM)
[1]; [4]
  MIC: 9.7 µg/mL (≈ 41.8 µM)
[1]; [5]
  MIC: 7.5 µg/mL (≈ 32.3 µM)
[1]; [6]
  MIC: 8.6 µg/mL (≈ 37 µM)
[1]; [7]
  MIC: 1.7 µg/mL (≈ 7.32 µM)
[1]; [8]
  MIC: < 1.8 µg/mL
[1]; [9]
  MIC: 3.7 µg/mL (≈ 15.9 µM)
[1]; [10]
  MIC: 9.1 µg/mL (≈ 39.2 µM)
[1]; [11]
  MIC: 10.9 µg/mL (≈ 46.9 µM)

## CN(C)[C@@H]1C(O)=C(C(N)=O)C(=O)[C@@]2(O)C(O)=C3C(=O)c4c(O)cccc4[C@@](C)(O)[C@H]3C[C@@H]12 [Tc, tetracycline]
[1]; [3]
  MIC: > 12.8 µg/mL
[1]; [4]
  MIC: 2.4 µg/mL (≈ 5.4 µM)
[1]; [5]
  MIC: 4.5 µg/mL (≈ 10.1 µM)
[1]; [6]
  MIC: 5.3 µg/mL (≈ 11.9 µM)
[1]; [7]
  MIC: 1.8 µg/mL (≈ 4.05 µM)
[1]; [8]
  MIC: < 0.6 µg/mL
[1]; [9]
  MIC: 1.2 µg/mL (≈ 2.7 µM)
[1]; [10]
  MIC: 8.2 µg/mL (≈ 18.5 µM)
[1]; [11]
  MIC: > 11.4 µg/mL
[2]; strain WEC, wild type, 30° C.
  Susceptibility by discs; diameter of clearing: 21 mm
[2]; {}
  Susceptibility by discs; diameter of clearing: 14 mm
